Key:
[1] = Filter paper ring characterization of hydrated iron proteinate (Example 4); format: physicochemical; conditions: compound added to iron proteinate solution, about 1:1 by weight to iron
Description: An iron proteinate or iron protein hydrolysate which was hydrolyzed from a vegetable protein was formed having an iron content of about 10%. […] A small amount of the solution was placed on filter paper with a pipette. […] Next, several different organic acids and sugars were added to various samples of the solution. Each was inspected both visually and by placing a small amount of solution on filter paper with a pipette. […] This is evidenced by darker rings remaining on the filter paper which corresponded to location of the waterfront.

[2] = Visual inspection of aqueous iron bisglycinate with added compound (Example 3); format: physicochemical; conditions: compound added to aqueous iron bisglycinate, compound to iron content about 1.8:1 by weight
[3] = Filter paper ring characterization of aqueous iron bisglycinate (Example 3); format: physicochemical; conditions: for RING APPEARANCE: compound added to aqueous iron bisglycinate, about 1.8:1 by weight to iron, filter paper after drying
[4] = Visual inspection of hydrated iron proteinate with or without added compound (Example 4); format: physicochemical; conditions: compound added to iron proteinate solution, compound to iron content about 1:1 by weight
Description: (§1) A small amount of the solution was placed on filter paper with a pipette. […] Next, several different organic acids and sugars were added to various samples of the solution. Each was inspected both visually and by placing a small amount of solution on filter paper with a pipette.

[5] = pH of hydrated iron proteinate with or without added compound (Example 4); format: physicochemical; conditions: compound added to iron proteinate solution, compound to iron content about 1:1 by weight
Description: as §1

[6] = Filter paper test of hydrated samples (Example 1, Phase 1); format: physicochemical; conditions: hydrated with water sufficient to dissolve, after 4 hours, solution placed on filter paper with pipette
Description: After hydrating Sample 1 and Sample 2 with an amount of water sufficient to dissolve the respective powders and allowing 4 hours to pass, a small amount of each solution was placed on filter paper with a pipette. By placing the two solutions on paper in this manner, the respective solutions were allowed to disperse away from the point of application while leaving behind any solids that may have formed.

[7] = Visual examination of solutions retained in test tubes (Example 1, Phase 2); conditions: solution retained in test tube 20 additional hours (after first 4 hours)

SMILES	RING APPEARANCE [1]	VISUAL [2]	mobility and solubility on the filter paper ([3]; added to separate samples of iron bisglycinate, versus control)	RING APPEARANCE [3]	VISUAL [4]	pH [5]	solids left behind on filter paper [6]	portion precipitated from solution (visual examination) [7]
O=C(O)CC(O)C(=O)O (centres unmarked) [Malic Acid]	dark brown waterfront ring	no precipitation	enhancement of mobility and solubility	dark waterfront ring	no change	2.0		
NCC(=O)[O-].NCC(=O)[O-].[Fe+2] [Sample 1, ferrous bisglycinate]							small clump of precipitate	approximately 50%
OC[C@H]1O[C@@](CO)(O[C@H]2O[C@H](CO)[C@@H](O)[C@H](O)[C@H]2O)[C@@H](O)[C@@H]1O [Sucrose]	brown staggered rings	precipitated solids		light staggered ring	no change	7.0		
CC(O)C(=O)O (centres unmarked) [Lactic Acid]	dark brown waterfront ring	no precipitation		dark waterfront ring	no change	1.0		
O=C(O)CC(O)(CC(=O)O)C(=O)O [Citric Acid]	dark brown waterfront ring				no change	1.5		
O=C1O[C@H]([C@@H](O)CO)C(O)=C1O [Ascorbic Acid]	dark brown waterfront ring	no precipitation		dark waterfront ring	no change	4.5		
O=C(O)CCC(=O)O [Succinic Acid]	dark brown waterfront ring				no change	2.0		
CC(=O)O [Acetic Acid]	dark brown waterfront ring				no change	3.0		

Source: patent US6716814B2, “Enhancing solubility of iron amino acid chelates and iron proteinates” (Albion International, Inc., priority 2001, dated 2004)
